Measurements: publication PMC10891162 (Scientific Reports, 2024)
Blank lines part the entries; values can stand above or below the molecule they belong to.

How the values were obtained:
[1] = test system: Anti-cAMP primary antibody (GenScript A01509); experiment: cAMP Lumit immunoassay: cAMP standard curve, specificity and competition testing; type: binding; details: n = 2; for Luminescence signal drop on titration instead of cAMP (specificity): concentrations up to 10 µM, Fig. 2C,D; for Interference with cAMP standard curve: metabolite included at 10 µM in cAMP titration, Fig. 2E,F
β-Adrenergic receptor = experiment: cAMP detection in A375 cells, endogenous β-Adrenergic receptor; type: cell-based; details: Fig. 5C, n = 3; for Change of cAMP levels, β-Adrenergic antagonist: in the presence of 50 nM Isopreterenol; for Change of cAMP levels, β-Adrenergic agonist: 5 min treatment
Description: (§1) Media was removed from wells and 5µL of the diluted compounds were added to each well. […] Plates were mixed on an orbital shaker for 5 min at 400 rpm. […] 5µL of 2% trichloroacetic acid (TCA, Fisher Scientific SA9410-500) in water were added to wells to terminate reactions and lyse cells. […] Plates were mixed on an orbital shaker for 5 min at 400 rpm. […] Plates were mixed on an orbital shaker for 5 min at 400 rpm then incubated for 30 min at room temperature. […] Luminescence signal was measured on a GloMax Discover Microplate Reader within 15 min.
(§2) The assays were conducted by treatment of cells followed by lysis with 2% TCA, which also terminates the reactions. Cell lysates were then incubated with antibodies and tracer diluted in 0.3 M Tris buffer (pH 9.0; for neutralization) for 30 min after which time the detection reagent was added.

PDE4A1A = target: T1, PDE4A1A (Homo sapiens, UniProt P27815); experiment: PDE4 inhibition study (cAMP Lumit detection); type: biochemical; details: 20 ng PDE4A1A per reaction, 10 µM cAMP, n = 2, Fig. 4
T1 construct: purchased BPS Biosciences 60040
Description: Plates were mixed on an orbital shaker for 5 min at 400 rpm.

HEK293 cells = experiment: cAMP detection in HEK293 cells treated with Forskolin; type: cell-based; details: 30 min treatment, Fig. 5D, n = 3
Description: as §1, §2

Adenosine receptor = experiment: cAMP detection in A375 cells, endogenous Adenosine receptor; type: cell-based; details: 1 h treatment, Fig. 5D, n = 3
Description: as §1, §2

Dopamine D1 = Dopamine D1 (Homo sapiens, UniProt P21728); experiment: cAMP detection in HEK293 cells stably transfected with DRD1; type: cell-based; details: n = 3
Description: as §1, §2

Dopamine D1, sequence (P21728 whole entry): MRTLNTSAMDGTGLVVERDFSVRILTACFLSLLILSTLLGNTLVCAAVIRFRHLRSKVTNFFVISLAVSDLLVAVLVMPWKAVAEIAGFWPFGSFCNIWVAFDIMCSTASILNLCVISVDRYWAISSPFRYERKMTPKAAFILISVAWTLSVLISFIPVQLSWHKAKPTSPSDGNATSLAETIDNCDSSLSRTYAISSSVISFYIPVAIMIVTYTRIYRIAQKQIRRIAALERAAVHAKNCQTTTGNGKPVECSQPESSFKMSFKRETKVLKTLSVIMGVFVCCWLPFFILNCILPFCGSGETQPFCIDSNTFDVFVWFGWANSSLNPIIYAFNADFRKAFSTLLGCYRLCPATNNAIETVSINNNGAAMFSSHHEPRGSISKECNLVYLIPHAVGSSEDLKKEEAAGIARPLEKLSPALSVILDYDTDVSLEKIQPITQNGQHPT
T1 sequence (P27815 1-647 isoform P27815-4): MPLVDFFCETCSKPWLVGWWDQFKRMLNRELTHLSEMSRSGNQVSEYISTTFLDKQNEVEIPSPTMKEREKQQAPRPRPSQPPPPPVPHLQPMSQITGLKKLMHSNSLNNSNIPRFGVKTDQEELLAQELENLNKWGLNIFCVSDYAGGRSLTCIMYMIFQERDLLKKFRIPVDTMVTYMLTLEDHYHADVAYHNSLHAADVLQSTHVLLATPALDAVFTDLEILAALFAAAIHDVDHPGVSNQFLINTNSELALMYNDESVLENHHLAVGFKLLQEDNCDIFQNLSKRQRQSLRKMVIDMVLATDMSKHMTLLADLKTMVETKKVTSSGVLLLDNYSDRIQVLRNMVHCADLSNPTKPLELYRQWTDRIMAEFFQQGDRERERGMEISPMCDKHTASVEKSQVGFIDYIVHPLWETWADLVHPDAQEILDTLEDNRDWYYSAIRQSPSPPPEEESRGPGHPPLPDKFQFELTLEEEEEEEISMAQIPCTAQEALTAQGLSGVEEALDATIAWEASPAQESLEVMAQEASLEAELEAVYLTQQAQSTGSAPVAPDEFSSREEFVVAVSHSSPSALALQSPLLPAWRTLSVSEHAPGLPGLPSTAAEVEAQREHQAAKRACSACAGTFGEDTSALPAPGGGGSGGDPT

SMILES: Nc1nc2c(ncn2[C@@H]2O[C@@H]3COP(=O)(O)O[C@H]4[C@@H](O)[C@H](n5cnc6c(N)ncnc65)O[C@@H]4COP(=O)(O)O[C@@H]2[C@@H]3O)c(=O)[nH]1 [2′3′-cGAMP, 2′3′-cyclic guanosine monophosphate-adenosine monophosphate]
Luminescence signal drop on titration instead of cAMP (specificity) [1]: None of the tested metabolites resulted in a significant luminescence signal drop
Interference with cAMP standard curve [1]: no effect

SMILES: Nc1nc2c(ncn2[C@@H]2O[C@@H]3COP(=O)(O)O[C@H]4[C@@H](O)[C@H](n5cnc6c(N)ncnc65)O[C@@H]4COP(=O)(O)O[C@H]3[C@H]2O)c(=O)[nH]1 [3′3′-cGAMP, 3′3′-cyclic guanosine monophosphate-adenosine monophosphate]
Luminescence signal drop on titration instead of cAMP (specificity) [1]: None of the tested metabolites resulted in a significant luminescence signal drop
Interference with cAMP standard curve [1]: no effect

SMILES: C=CCc1ccccc1OCC(O)CNC(C)C (stereo not drawn) [Alprenolol]
Change of cAMP levels, β-Adrenergic antagonist (β-Adrenergic receptor): cAMP levels reduction

IC50 (PDE4A1A): 7.3 nM
SMILES: CCOc1ccccc1C(=O)NCc1coc(-c2ccc(OC(F)F)c(OC(C)C)c2)n1 [Difamilast]

SMILES: CNC[C@H](O)c1ccc(O)c(O)c1 [Epinephrine]
Change of cAMP levels, β-Adrenergic agonist (β-Adrenergic receptor): cAMP levels increase

SMILES: C=C[C@@]1(C)CC(=O)[C@]2(O)[C@@]3(C)[C@@H](O)CCC(C)(C)[C@@H]3[C@H](O)[C@H](OC(C)=O)[C@@]2(C)O1 [Forskolin]
Change of cAMP levels (HEK293 cells): cAMP levels increase

SMILES: CC(C)NCC(O)c1ccc(O)c(O)c1 (stereo not drawn) [Isopreterenol, Isoproterenol]
Change of cAMP levels, β-Adrenergic agonist (β-Adrenergic receptor): cAMP levels increase

SMILES: CCNC(=O)[C@H]1O[C@@H](n2cnc3c(N)ncnc32)[C@H](O)[C@@H]1O [NECA]
Change of cAMP levels, Adenosine receptor agonist (Adenosine receptor): cAMP levels increase

SMILES: CC(C)NCC(O)COc1cccc2ccccc12 (stereo not drawn) [Propranolol]
Change of cAMP levels, β-Adrenergic antagonist (β-Adrenergic receptor): cAMP levels reduction

Change of cAMP levels, DRD1 antagonist (Dopamine D1; HEK293 stably transfected with DRD1, in the presence of 100 nM SKF38393, Fig. 5A): cAMP levels reduction
SMILES: CN1CCc2cc(Cl)c(O)cc2[C@@H](c2ccccc2)C1 [SCH23390]

Change of cAMP levels, DRD1 agonist (Dopamine D1; HEK293 stably transfected with DRD1, 1 h treatment, Fig. 5A): cAMP levels increase
SMILES: Oc1cc2c(cc1O)C(c1ccccc1)CNCC2 (stereo not drawn) [SKF38393]

SMILES: Nc1nc2c(ncn2[C@@H]2O[C@@H]3COP(=O)(O)O[C@H]3[C@H]2O)c(=O)[nH]1 [cGMP, cyclic guanosine monophosphate]
Luminescence signal drop on titration instead of cAMP (specificity) [1]: None of the tested metabolites resulted in a significant luminescence signal drop
Interference with cAMP standard curve [1]: no effect
